Source: patent EP2924039A1, “2-Amino-1-phenyl-pyrrolo[3,2-b]quinoxaline-3-carboxamide derivates” (Universität Zürich, priority 2014, dated 2015)

Assays:
full-length human EphB4 = molecular target: T1, full-length human EphB4 (Homo sapiens, UniProt P54760); experiment: Cellular phosphorylation assay (sandwich ELISA, ProQinase); format: cell-based; conditions: mouse embryonic fibroblast cells overexpressing EphB4, stimulated with murine ephrinB2-Fc, read-out: cell IC50
T1 construct: stably transfected to overexpress full-length human EphB4; host or cells: Mouse embryonic fibroblast cells
T1 sequence (P54760 16-987): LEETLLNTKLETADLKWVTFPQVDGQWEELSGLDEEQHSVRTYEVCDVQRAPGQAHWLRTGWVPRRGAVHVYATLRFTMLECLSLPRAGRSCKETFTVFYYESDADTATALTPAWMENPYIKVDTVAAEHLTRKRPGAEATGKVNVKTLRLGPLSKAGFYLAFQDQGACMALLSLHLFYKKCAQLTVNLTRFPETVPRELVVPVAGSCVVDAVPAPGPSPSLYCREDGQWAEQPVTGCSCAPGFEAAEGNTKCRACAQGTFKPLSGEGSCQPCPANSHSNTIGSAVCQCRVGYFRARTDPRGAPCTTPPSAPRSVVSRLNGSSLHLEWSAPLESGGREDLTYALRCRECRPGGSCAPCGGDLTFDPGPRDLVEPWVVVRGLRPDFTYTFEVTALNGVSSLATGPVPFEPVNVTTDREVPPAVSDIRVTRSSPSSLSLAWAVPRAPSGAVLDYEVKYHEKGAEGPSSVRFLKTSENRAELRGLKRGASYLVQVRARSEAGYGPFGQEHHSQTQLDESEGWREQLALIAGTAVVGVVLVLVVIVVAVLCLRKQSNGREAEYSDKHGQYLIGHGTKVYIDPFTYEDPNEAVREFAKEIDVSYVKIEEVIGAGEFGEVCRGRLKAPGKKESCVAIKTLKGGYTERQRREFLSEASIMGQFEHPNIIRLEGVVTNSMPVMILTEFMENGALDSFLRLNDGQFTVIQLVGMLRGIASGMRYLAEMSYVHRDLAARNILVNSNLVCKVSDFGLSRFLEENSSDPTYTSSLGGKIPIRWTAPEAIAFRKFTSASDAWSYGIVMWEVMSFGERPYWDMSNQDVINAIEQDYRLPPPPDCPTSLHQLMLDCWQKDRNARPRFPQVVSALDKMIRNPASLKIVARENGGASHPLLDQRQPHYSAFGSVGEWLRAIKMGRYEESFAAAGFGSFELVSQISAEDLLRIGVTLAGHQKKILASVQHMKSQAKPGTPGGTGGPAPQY
Method: Cellular phosphorylation assays: The cellular phosphorylation experiments were performed at ProQinase GmbH. Mouse embryonic fibroblast cells, stably transfected to overexpress full-length human EphB4, were plated at 4×10^4 cells/well in DMEM supplemented with 10% FCS in 48-well culture dishes. Medium was replaced by DMEM without FCS before test compounds prediluted in 100% DMSO were added (final DMSO concentration of 1 %). After incubation for 90 min at 37 °C, cells were stimulated for 2 h at 4 °C using murine ephrinB2-Fc at a final concentration of 2 µg/ml. Quantification of EphB4 phosphorylation was assessed in a 96-well plate via sandwich ELISA using a myc capture antibody and an antiphosphotyrosine detection antibody. Table 4: Cell IC50 (µmol/l) in cells overexpressing EphB4

EphA3 [1] = molecular target: T2, EphA3 (Homo sapiens, UniProt P29320); experiment: Surface Plasmon Resonance (SPR) determination of Kd; format: binding; conditions: immobilized EphA3, 20 mM PBS pH 7.4, 150 mM NaCl
T2 construct: A clone of EphA3 kinase domain (residues: 606-947); made in house; host or cells: Escherichia coli BL21 (DE3)
T2 sequence (P29320 606-947): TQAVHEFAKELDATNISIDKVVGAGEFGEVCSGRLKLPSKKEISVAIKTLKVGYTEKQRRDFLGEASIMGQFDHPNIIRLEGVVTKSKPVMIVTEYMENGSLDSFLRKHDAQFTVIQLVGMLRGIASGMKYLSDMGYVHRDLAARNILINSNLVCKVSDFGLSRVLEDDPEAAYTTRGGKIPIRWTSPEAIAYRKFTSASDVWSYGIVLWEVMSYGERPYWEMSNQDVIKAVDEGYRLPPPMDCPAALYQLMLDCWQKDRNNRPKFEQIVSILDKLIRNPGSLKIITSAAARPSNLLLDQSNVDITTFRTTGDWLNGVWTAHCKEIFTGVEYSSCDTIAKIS
Text: The EphA3-compound dissociation constant (Kd) in Table 2 were obtained following the experimental protocol of Jecklin M.C., et al (Journal of Molecular Recognition 22(4), 319-329), subject to the following modifications: • 1) EphA3 protein was purified as per the protocol given in the "Experimental Section" of Lafleur K., Dong J., Huang D., Caflisch A. and C. Nevado (Journal of Medicinal Chemistry, 2013; 56(1):84-96), under the header "Protein Expression and Purification". Protein concentration was determined using a NanoDrop 1000 from Thermo Scientific (Witec AG, Littau LU, Switzerland). • 2) Under "Instrumentation and reagents": 20 mM PBS pH 7.4, 150 mM NaCl was used as running buffer. • 3) Under "Enzyme immobilization": Following activation of flow cells, 300 µg/ml of EphA3 in immobilization buffer was injected over a 2 minute time period. Residual activated groups on the surface were then blocked by a 7 minute injection of 1 M ethanolamine, pH 8.5. […] Each suspension was then analyzed, commencing from the lowest and proceeding to the highest concentration, and then run in duplicate from the highest to the lowest concentration. During each binding cycle, the compound suspension was injected during a time period of 6 minutes at a flow rate of 5 µl/min and dissociation was monitored for 900 s. […]

EphA3 [2] = molecular target: T2, EphA3; experiment: Differential Scanning Fluorimetry; format: binding; conditions: 2 µM EphA3, compound 20µM; read-out: Delta Tm
Method: Cell pellets were resuspended in buffer A (50mM Tris, pH 8.0 and 100mM NaCl, supplemented with protease inhibitors) and lysed by sonication. After centrifugation at 15,000 rpm for 1 h, the soluble fraction of EphA3 was purified using […] (GE healthcare), followed by gel filtration chromatography (Superdex75; GE healthcare). The appropriate fractions were combined and concentrated to ~10 mg/mL using Amicon filter devices (10kDa as cutoff) in a storage solution (100mM sodium chloride and 10mM Tris-HCl pH 8.0, 5% glycerol). The resulting solution was aliquoted and stored at -80°C for further usage.
A final volume of 40µL was added per well in a 96 well plate and incubated at room temperature for 1 h. The plates were centrifuged for 3 min at 450 rcf. The temperature gradient was performed in the range of 25°C-75°C (50 acquisitions per degree at a ramp rate of 4.4°C/s) using a LightCycler 480 Real-Time PCR System. […] All measurements were performed in triplicate.

Row | IC50 (full-length human EphB4) | Kd (EphA3 [1]) | ΔTm at 20 µM (EphA3 [2]) | SMILES
1 | 16 nM | 3.7 nM | 9.1 °C | NC(=O)c1c(N)n(-c2cccc(C(=O)Nc3cccc(C(F)(F)F)c3)c2)c2nc3ccccc3nc12 [Compound 10c, 2-amino-1-(3-((3-(trifluoromethyl)phenyl)carbamoyl)phenyl)-1H-pyrrolo[2,3-b]quinoxaline-3-carboxamide]
2 | 20 nM | 40.1 nM | 7.6 °C | NC(=O)c1c(N)n(-c2cccc(NC(=O)c3cccc(C(F)(F)F)c3)c2)c2nc3ccccc3nc12 [Compound 10d, 2-amino-1-(3-(3-(trifluoromethyl)benzamido)phenyl)-1H-pyrrolo[2,3-b]quinoxaline-3-carboxamide]
